Test results reported in patent publication US20240109887A1 (Viva Star Biosciences (Suzhou) Co., Ltd., priority 2021, published 2024).

Columns and labels:
[1] = target: T1, KRAS G12C/SOS1 (Homo sapiens, UniProt Q07889); test: biochemical
T1 sequence (Q07889 1-1333): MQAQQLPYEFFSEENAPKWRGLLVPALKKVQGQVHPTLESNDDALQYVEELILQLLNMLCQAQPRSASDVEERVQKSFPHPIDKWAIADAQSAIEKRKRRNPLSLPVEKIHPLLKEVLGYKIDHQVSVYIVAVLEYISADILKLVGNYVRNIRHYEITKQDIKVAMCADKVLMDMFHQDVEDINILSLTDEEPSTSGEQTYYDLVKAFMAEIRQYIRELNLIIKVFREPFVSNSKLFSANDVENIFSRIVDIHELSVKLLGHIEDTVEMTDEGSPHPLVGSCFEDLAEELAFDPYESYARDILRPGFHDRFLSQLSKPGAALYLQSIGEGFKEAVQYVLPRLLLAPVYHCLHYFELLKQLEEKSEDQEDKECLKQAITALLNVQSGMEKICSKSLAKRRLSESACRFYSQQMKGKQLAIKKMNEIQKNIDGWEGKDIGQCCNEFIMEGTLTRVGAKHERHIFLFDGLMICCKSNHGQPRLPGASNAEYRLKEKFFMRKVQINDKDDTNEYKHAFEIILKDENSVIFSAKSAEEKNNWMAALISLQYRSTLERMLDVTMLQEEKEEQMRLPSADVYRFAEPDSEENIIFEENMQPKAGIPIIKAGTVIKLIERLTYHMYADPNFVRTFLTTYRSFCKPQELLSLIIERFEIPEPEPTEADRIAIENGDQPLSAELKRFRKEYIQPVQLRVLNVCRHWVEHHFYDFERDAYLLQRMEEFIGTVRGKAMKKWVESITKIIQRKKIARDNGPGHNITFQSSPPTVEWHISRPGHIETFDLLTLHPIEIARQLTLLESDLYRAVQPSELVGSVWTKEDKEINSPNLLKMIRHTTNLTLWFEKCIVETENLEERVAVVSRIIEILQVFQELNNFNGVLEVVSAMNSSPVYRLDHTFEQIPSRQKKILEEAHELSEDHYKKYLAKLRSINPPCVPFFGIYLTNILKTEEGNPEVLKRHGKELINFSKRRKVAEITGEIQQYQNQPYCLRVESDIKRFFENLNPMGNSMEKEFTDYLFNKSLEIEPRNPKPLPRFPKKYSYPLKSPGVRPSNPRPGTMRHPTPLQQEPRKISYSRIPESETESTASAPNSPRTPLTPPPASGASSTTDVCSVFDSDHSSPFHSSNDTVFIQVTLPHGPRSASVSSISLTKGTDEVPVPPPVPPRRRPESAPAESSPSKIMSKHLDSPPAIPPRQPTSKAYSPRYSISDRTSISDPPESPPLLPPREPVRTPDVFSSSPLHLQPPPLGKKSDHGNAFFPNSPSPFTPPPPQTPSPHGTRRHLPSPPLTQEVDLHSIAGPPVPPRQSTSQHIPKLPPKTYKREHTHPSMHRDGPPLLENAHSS

[2] = target: T2, KRAS G12D/SOS1 (Homo sapiens, UniProt Q07889); test: biochemical
T2 sequence (Q07889 1-1333): T1 sequence (Q07889 1-1333)

[3] = target: T3, KRAS-WT/SOS1 (Homo sapiens, UniProt Q07889); test: biochemical
T3 sequence (Q07889 1-1333): T1 sequence (Q07889 1-1333)

[4] = target: T3, KRAS-WT/SOS1; test: KRAS-WT/SOS1 binding assay (HTRF); conditions: Tag2-KRAS-WT with Tag1-SOS1, 10 μM GTP
[5] = target: T2, KRAS G12D/SOS1; test: KRAS G12D/SOS1 binding assay (HTRF); conditions: Tag2-KRAS G12D with Tag1-SOS1, 10 μM GTP

SMILES	IC50 [1]	IC50 [2]	IC50 [3]	other results
C[C@@H](NC(=O)c1cn(C2CCOCC2)c(=O)c2c[nH]nc12)c1cccc(C(F)(F)CO)c1 [Example 1, (R)—N-(1-(3-(1,1-difluoro-2-hydroxyethyl)phenyl)ethyl)-4-oxo-5-(tetrahydro-2H-pyran-4-yl)-4,5-dihydro-2H-pyrazolo[4,3-c]pyridine-7-carboxamide]	< 100 nM	< 100 nM		
C[C@@H](NC(=O)c1cn(C2CCOCC2)c(=O)c2c[nH]nc12)c1cccc(C(F)F)c1F [Example 3, (R)-N-(1-(3-(difluoromethyl)-2-fluorophenyl)ethyl)-4-oxo-5-(tetrahydro-2H-pyran-4-yl)-4,5-dihydro-2H-pyrazolo[4,3-c]pyridine-7-carboxamide]	< 100 nM	< 100 nM	< 100 nM	
C[C@@H](NC(=O)c1cn(C2(C)CC2)c(=O)c2cn[nH]c12)c1cccc(C(F)(F)F)n1 [Example 8, (R)-5-(1-methylcyclopropyl)-4-oxo-N-(1-(6-(trifluoromethyl)pyridin-2-yl)ethyl)-4,5-dihydro-1H-pyrazolo[4,3-c]pyridine-7-carboxamide]				Activity Data in Kras: SOS1 Assay, Wild Type [4]: C (C: 500~5 μM); Activity Data in Kras: SOS1 Assay, G12D [5]: C (C: 500~5 μM)
C[C@@H](NC(=O)c1cn([C@H]2CC[C@@H](C(=O)N(C)CCO)CC2)c(=O)c2c[nH]nc12)c1cccc2c1CCC2(F)F [Example 11, N—((R)-1-(1,1-difluoro-2,3-dihydro-1H-inden-4-yl)ethyl)-5-((1s,4S)-4-((2-hydroxyethyl)(methyl)carbamoyl)cyclohexyl)-4-oxo-4,5-dihydro-2H-pyrazolo[4,3-c]pyridine-7-carboxamide]				Activity Data in Kras: SOS1 Assay, Wild Type [4]: C (C: 500~5 μM); Activity Data in Kras: SOS1 Assay, G12D [5]: C (C: 500~5 μM)
COc1c(C2CCOCC2)cc(C(=O)N[C@H](C)c2cccc3c2CCC3(F)F)c2n[nH]cc12 [Example 16, N-[(1R)-1-(1,1-difluoro-2,3-dihydro-1H-inden-4-yl)ethyl]-4-methoxy-5-(oxan-4-yl)-2H-indazole-7-carboxamide]	100 to 500 nM			
COc1c(-c2ccc(=O)n(C)c2)cc(C(=O)N[C@H](C)c2cccc3c2CCC3(F)F)c2n[nH]cc12 [Example 17, N-[(1R)-1-(1,1-difluoro-2,3-dihydro-1H-inden-4-yl)ethyl]-4-methoxy-5-(1-methyl-6-oxo-1,6-dihydropyridin-3-yl)-2H-indazole-7-carboxamide]	< 100 nM			
Cc1nc(N[C@H](C)c2cccc(C(F)(F)CO)c2)c2c(n1)N(C)C(=O)N(C1CCOCC1)C2 [Example 25, (R)-5-((1-(3-(1,1-difluoro-2-hydroxyethyl)phenyl)ethyl)amino)-1,7-dimethyl-3-(tetrahydro-2H-pyran-4-yl)-3,4-dihydropyrimido[4,5-d]pyrimidin-2(1H)-one]	100 to 500 nM		100 to 500 nM	
Cc1nc(N[C@H](C)c2cccc3c2CCC3(F)F)c2c(n1)N(C)C(=O)N(C1CCOCC1)C2 [Example 26, (R)-5-((1-(1,1-difluoro-2,3-dihydro-1H-inden-4-yl)ethyl)amino)-1,7-dimethyl-3-(tetrahydro-2H-pyran-4-yl)-3,4-dihydropyrimido[4,5-d]pyrimidin-2(1H)-one]	100 to 500 nM			
COc1c(OC2CC(F)(F)C2)cc(C(=O)N[C@H](C)c2cccc3c2CCC3(F)F)c2n[nH]cc12 [Example 31, (R)-N-(1-(1,1-difluoro-2,3-dihydro-1H-inden-4-yl)ethyl)-5-(3,3-difluorocyclobutoxy)-4-methoxy-2H-indazole-7-carboxamide]				Activity Data in Kras: SOS1 Assay, Wild Type [4]: C (C: 500~5 μM); Activity Data in Kras: SOS1 Assay, G12D [5]: C (C: 500~5 μM)
COc1c(C2CCNCC2)cc(C(=O)N[C@H](C)c2cccc(C(F)(F)CO)c2)c2[nH]ncc12 [Example 35, N-[(1R)-1-[3-(1,1-difluoro-2-hydroxyethyl)phenyl]ethyl]-4-methoxy-5-(piperidin-4-yl)-1H-indazole-7-carboxamide]		< 100 nM	< 100 nM	
COc1c(C2CCCNC2)cc(C(=O)N[C@H](C)c2cccc(C(F)(F)CO)c2)c2[nH]ncc12 (stereo partly drawn) [Example 36, N—((R)-1-(3-(1,1-difluoro-2-hydroxyethyl)phenyl)ethyl)-4-methoxy-5-(piperidin-3-yl)-1H-indazole-7-carboxamide]		< 100 nM	< 100 nM	
COc1c(C2CCCN(C)C2)cc(C(=O)N[C@H](C)c2cccc(C(F)(F)CO)c2)c2[nH]ncc12 (stereo partly drawn) [Example 37, N—((R)-1-(3-(1,1-difluoro-2-hydroxyethyl)phenyl)ethyl)-4-methoxy-5-(1-methylpiperidin-3-yl)-1H-indazole-7-carboxamide]		< 100 nM	< 100 nM	
C[C@@H](NC(=O)c1cn(C2CCOCC2)c(=O)c2cc[nH]c12)c1cccc2c1CCC2(F)F [Example 38, (R)—N-(1-(1,1-difluoro-2,3-dihydro-1H-inden-4-yl)ethyl)-4-oxo-5-(tetrahydro-2H-pyran-4-yl)-4,5-dihydro-1H-pyrrolo[3,2-c]pyridine-7-carboxamide]	< 100 nM			
C[C@@H](NC(=O)c1cn(C2CCOCC2)c(=O)c2cc[nH]c12)c1cccc(C(F)(F)CO)c1 [Example 39, (R)—N-(1-(3-(1,1-difluoro-2-hydroxyethyl)phenyl)ethyl)-4-oxo-5-(tetrahydro-2H-pyran-4-yl)-4,5-dihydro-1H-pyrrolo[3,2-c]pyridine-7-carboxamide]	< 100 nM			
C[C@@H](NC(=O)c1cn(C2CCOCC2)c(=O)c2cc[nH]c12)c1cccc(C(F)F)c1F [Example 40, (R)—N-(1-(3-(difluoromethyl)-2-fluorophenyl)ethyl)-4-oxo-5-(tetrahydro-2H-pyran-4-yl)-4,5-dihydro-1H-pyrrolo[3,2-c]pyridine-7-carboxamide]	< 100 nM			
C[C@@H](NC(=O)c1cn(C2(C)CC2)c(=O)c2cc[nH]c12)c1cccc2c1CCC2(F)F [Example 41, (R)—N-(1-(1,1-difluoro-2,3-dihydro-1H-inden-4-yl)ethyl)-5-(1-methylcyclopropyl)-4-oxo-4,5-dihydro-1H-pyrrolo[3,2-c]pyridine-7-carboxamide]		< 100 nM	< 100 nM	
C[C@@H](NC(=O)c1cn(C2(C)CC2)c(=O)c2cc[nH]c12)c1cccc(C(F)(F)CO)c1 [Example 42, (R)—N-(1-(3-(1,1-difluoro-2-hydroxyethyl)phenyl)ethyl)-5-(1-methylcyclopropyl)-4-oxo-4,5-dihydro-1H-pyrrolo[3,2-c]pyridine-7-carboxamide]		< 100 nM	< 100 nM	
COc1c(N2CCOCC2)nc(C(=O)N[C@H](C)c2cccc3c2CCC3(F)F)c2n[nH]cc12 [Example 44, (R)—N-(1-(1,1-difluoro-2,3-dihydro-1H-inden-4-yl)ethyl)-4-methoxy-5-morpholino-2H-pyrazolo[3,4-c]pyridine-7-carboxamide]				Activity Data in Kras: SOS1 Assay, Wild Type [4]: C (C: 500~5 μM); Activity Data in Kras: SOS1 Assay, G12D [5]: C (C: 500~5 μM)
